Test results reported in US20100189798A1, “CONTROL OF ERWINIA AMYLOVORA WITH VINYLGLYCINES AND BACTERIA THAT PRODUCE VINYLGLYCINES” (The State of Oregon acting by and through the State Board …, priority 2009, published 2010).

Assays:
Erwinia amylovora = test: Erwinia bioassay: culture filtrates or test solutions in agar well, zone of inhibition; format: cell-based; conditions: 300 μL per well, 28° C., 48 hours
Method: Assays of Culture Filtrates, Live Bacteria, and FVG-Analogs for Antibiosis Activity against Erwinia amylovora and Other Bacterial Species and Strains: The potential antibiosis activities of various P. fluorescens isolates, their culture filtrates, and the FVG analogs prepared as described above were tested against Erwinia amylovora and a number of other bacterial species and strains listed in Table 4. For this purpose, cryovial stocks of the test organisms (including P. fluorescens lines from the stocks described above) were prepared from bacterial cultures grown in LB liquid medium. For this specific experimental purpose, aliquots of these cultures were stored in cryovials at −80° C. in LB medium containing glycerol at a final concentration of 15% (v/v).
Bacterial lawns of test organisms were prepared from cells grown by inoculating 10 μL of the 15% glycerol stocks into 5 mL of liquid LB Medium. The cells were allowed to multiply overnight at 28° C. with shaking (200 rpm). The resulting bacterial suspension was adjusted with water to an optical density of 0.2 at 600 nm (Spectronic® 20 Spectrophotometer; Milton Roy Co., Rochester N.Y.). 300 μL aliquots of the diluted suspension were spread onto the agar surfaces of Petri plates (100×15 mm) containing […] of 925 Minimal Medium (prepared and amended as described below). […]

seeds of grassy weeds = conditions: as disclosed in U.S. patent application Ser. No. 12/567,590; cited from earlier work
[1] = as described in U.S. patent application Ser. No. 12/567,590; cited from earlier work

## NOCC(=O)O [AOA, 2-aminooxyacetic acid]
Erwinia amylovora; AOA solution, pH 6.4
  Growth inhibition of E. amylovora (in words): effective growth inhibitor

## NC(C=CONC=O)C(=O)O (stereo not shown) [FVG, 2-amino-4-formylaminooxybut-3-enoic acid]
Seeds of grassy weeds
  Germination arrest in the seeds of grassy weeds (in words): ability to produce germination arrest
[1]
  Solubility in organic solvents (in words): insoluble or sparingly soluble in organic solvents

## NCCOC=CC(N)C(=O)O (stereo not shown) [AVG, 2-amino-4-aminoethoxybut-3-enoic acid]
Erwinia amylovora; commercial sample of pure AVG-HCl, 3 mM
  Inhibitory effect on growth of E. amylovora (in words): inhibitory effect of AVG on E. amylovora has subsequently been confirmed
